Data: patent US10662124B2, “Fertilizer composition containing oxidized glutathione and fertilizer element for foliar application” (Kaneka Corporation, priority 2015, dated 2020)

How the values were obtained:
[1] = tested on: Lettuce seedlings (Green leaf lettuce, Sakata Seed Corporation); experiment: Example 2: effects of application on leaf surface, lettuce seedling-raising test; type: in vivo; conditions: for Weight (fresh weight, average, of the terrestrial parts): 2 weeks, n=3; for Growth rate (fresh weight of terrestrial parts relative to Control group): Control group = 100
Experimental: (§1) Lettuce seedlings (Green leaf lettuce, Sakata Seed Corporation) were raised under the conditions described below.
(§2) Place: Inside a plant incubator
(§3) Soil: Black soil (40 ml/pot)
(§4) Light: 115 μmol m^−2 s^−1 (10,000 lux) (light period: 16 hours; dark period: 8 hours)
Number of tested plants (n): 3
(§5) Water supply: During the seedling-raising test, water was adequately supplied so as to prevent the soil in the pot from being dehydrated (about 20 ml/week).
Test groups: Four test groups: i.e., Control group, Comparative group 1, Comparative group 2, and Invention group, were provided as shown in Table 3 below.
(§6) Control group was tested through application of fertilizer elements (nitrogen, phosphorus, and potassium) only to soil without the application of GSSG.
(§7) In the case of Control group, soil was prepared to comprise nitrogen, phosphorus, and potassium in an amount of 40 mg each (120 mg in total per pot) in terms of N, P2O5, and K2O, respectively, at the time of sowing. Specifically, 40 ml of soil, 156 mg of ammonium sulfate, 66 mg of monobasic ammonium phosphate, and 80 mg of potassium sulfate were weighed and introduced into a container, these components were mixed to prepare a homogeneous composition, and the resultant was introduced into a pot. Ammonium sulfate used in the experiment contained 21% of nitrogen (in terms of N), and monobasic ammonium phosphate contained 11% of nitrogen (in terms of N) and 61% of phosphorus (in terms of P2O5), and potassium sulfate contained 50% of potassium (in terms of K2O) (based on the indication of each product).
(§8) Lettuce seeds were sowed in soil in the pot and the seedling-raising test was then initiated.
Comparative group 1 was tested through application of GSSG and a fertilizer elements (nitrogen, phosphorus, and potassium) only to soil.
The method for application of fertilizer elements to soil and the amount of application are as described above with reference to Control group.
GSSG was applied to soil with the addition of an aqueous solution of GSSG to soil. At the outset, an aqueous solution of GSSG (in terms of free GSSG, the same applies hereinbelow) dissolved at 300 ppm in water was prepared. Subsequently, the aqueous solution of GSSG was applied in an amount of 4 ml each (12 ml in total) three separate times at intervals of 3 days from 6 days after seedling raising was initiated. Thus, 3.6 mg of GSSG (in terms of free GSSG) was applied during the test period per pot. […]
In Invention group, soil was prepared to contain the fertilizer elements (i.e., 36 mg each of nitrogen, phosphorus, and potassium in terms of N, P2O5, and K2O, respectively, 108 mg in total per pot) at the time of sowing. Specifically, 40 ml of soil and, as fertilizer elements, 140.4 mg of ammonium sulfate, 59.4 mg of ammonium phosphate, and 72 mg of potassium sulfate, were weighed and introduced into a container, these components were mixed to prepare a homogeneous composition, and the resultant was then introduced into a pot.
GSSG was spray-applied to the leaf surface as described below. The finely-powdered water-soluble preparation (1) of the formulation A as described in Example 1 (33.8 mg) was dissolved in 12 ml of water to prepare an aqueous solution containing GSSG and fertilizer elements. […]

[2] = tested on: Lettuce seedlings (Green leaf lettuce, Sakata Seed Corporation); experiment: Example 6: spray-application to leaf surface with different amounts of fertilizer elements, lettuce seedling-raising test; type: in vivo
Experimental: as §1, §2, §3, §4
Number of tested plants (n): 4
as §5
Test groups: […] test groups: i.e., Control group, Comparative group 7, Formulation group 1 (15 parts of the fertilizer), Formulation group 2 (30 parts of the fertilizer), Formulation group 3 (100 parts of the fertilizer), Formulation group 4 (150 parts of the fertilizer), Formulation group 5 (200 parts of the fertilizer), and Formulation group 6 (400 parts of the fertilizer), were provided as shown in Table 11 below.
as §6
as §7, with “contain” for “comprise”, “elements” for “components”, “N),” for “N), and”
as §8
Comparative group 7 was tested through application of GSSG to the leaf surface and fertilizer elements (nitrogen, phosphorus, and potassium) to soil. […]

**Q.** With Oxidized glutathione [GSSG] as the substance, how does the “Plant growth promotion versus Control group” value ([1]; Comparative group 1 (GSSG to soil) compared with Control group) read?
**A.** plant growth is promoted

**Q.** What about the “Weight (fresh weight, average, of the terrestrial parts)” value ([1]; GSSG applied to soil, 3.6 mg per pot in three applications, fertilizer elements to soil) of the same substance?
**A.** 90 mg

**Q.** What about the “Growth rate (fresh weight of terrestrial parts relative to Control group)” value ([1]; GSSG applied to soil, 3.6 mg per pot, fertilizer elements to soil) of the same substance?
**A.** 130%

**Q.** What about the “Growth rate (fresh weight of terrestrial parts relative to Control group)” value ([1]; sprayed to the leaf surface three times, 12 ml in total per pot (3.5-3.6 mg GSSG)) of the same substance?
**A.** 149%

**Q.** And the “Weight (fresh weight, average, of the terrestrial parts)” value ([1]; sprayed to the leaf surface three times, 12 ml in total per pot (3.5-3.6 mg GSSG), remaining fertilizer elements to soil)?
**A.** 103 mg

**Q.** What about the “Weight (fresh weight, average, of the terrestrial parts)” value ([2]; 2 weeks, n=4, 3.5 mg GSSG with 0-400 parts of fertilizer per 100 parts GSSG sprayed to leaf surface three times, 12 ml in total per pot, rest of fertilizer to soil) of the same substance?
**A.** 88 mg

**Q.** What about the “Plant growth promotion versus Control group” value ([2]; Comparative group 7 compared with Control group) of the same substance?
**A.** plant growth is promoted

**Q.** And the “Growth rate (fresh weight of terrestrial part relative to Control group)” value ([2]; Control group = 100, 3.5 mg GSSG with 0-400 parts of fertilizer per 100 parts GSSG sprayed to leaf surface)?
**A.** 131%
